Laboratory results from paper PMC10005301, “Prediction of the n-Octanol/Water Partition Coefficients of Basic Compounds Using Multi-Parameter QSRR Models Based on IS-RPLC Retention Behavior in a Wide pH Range” (Molecules, 2023).
Where two headings read alike, the source gives them in different places.

Legend:
[1] = IS-RPLC retention on silica-based C18 column, logkw by linear solvent strength model; assay type: physicochemical
Procedure: (§1) The retention behavior of the 42 basic compounds (Table 1) were investigated at different ratios of methanol (φ = 0.7–0.1, the interval was 0.1 or 0.05 based on the retention of the investigated solutes). The logk values were plotted versus φ for each solute at pH 7.0, pH 8.0, pH 9.0, and pH 10.0. […] The logD values of the model compounds and verification compounds calculated using Equation (S3) based on the logP and pH values are also listed in Table 1.
The column temperature was set at 30 °C. Methanol and 20 mmol/L ammonium phosphate buffer (pH = 7.0, 8.0, 9.0, 10.0) was used as the mobile phase to perform isocratic elution. The injection volume was 10 µL and the detection wavelength for each eluted compound was set at its optimum absorption wavelength.
(§2) At each pH, the retention time (tR) of every analyte was determined for at least four different volume fractions (φ) of methanol. All the tR values of the solutes were obtained by averaging the results of at least three independent injections. The tR value was corrected using dual-point retention time correction (DP-RTC). For a detailed description of the process, refer to our previous work. For the different hydrophobicities of the studied compounds, benzene, toluene, and benzyl alcohol were used as anchor compounds in the DP-RTC method. The dead time t0 was determined using uracil. For each solute, the logarithm of k was plotted against φ, and logkw was obtained using the Equation (S1). The logD values of the model compounds were calculated using Equation (S3), and the logD–logkw models were established with Equation (S4). The statistical analysis for the regression model was accomplished using Origin 9.4. […]
(§3) Where, k is the capacity factor, φ is the volume fraction of organic modifier in the mobile phase, and S is the constant obtained by linear regression in the equations. […]
The Eqs. (S1) and (S2) are the basis for the determination of logP by revered- phase liquid chromatography (RPLC) method. For dissociative solutes, it has been confirmed by many studies that the logD calibrated from logP has a better linear correlation with logkw than logP. […]

[2] = for logDpH 7.0: pH 7; for logDpH 8.0: pH 8; for logDpH 9.0: pH 9; for logDpH 10.0: pH 10
Description: as §1, §2, §3
and logkw, which is usually called Collander equation [25 ]. lo g lo g wPm k n= + (S2)
Where, m and n are constants obtained by linear regression.
The Eqs. (S1) and (S2) are the basis for the determination of logP by revered- phase liquid chromatography (RPLC) method. For dissociative solutes, it has been confirmed by many studies that the logD calibrated from logP has a better linear correlation with logkw than logP.
For basic compounds, the logD value can be calibrated from Eq. (S3), and the Collander equation can be rewritten into Eq. (S4). log log( )D − −+ −+= + ++P […]
lo g ' lo g 'Dm k n= +w (S4)
Where, pKa1, pKa2 , … p Kan are the dissociation constants of basic compounds of corresponding acids in the mobile phase, pH is the pH value of mobile phase, m′ and n′ are fitting parameters. Han et al. pointed out that although mobile phase pH and pKa of solutes will change along with the varied organic modifier fraction, the difference between a couple of relevant pH and pKa is a constant. Therefore, the used pH and pKa in this paper were both the values obtained at 100% aqueous phase. […]

[3] = set-up: method as in UFZ-LSER database; settings: hydrogen bonding parameter B; ref UFZ-LSER database; cited from earlier work
[4] = logD determined by multi-parameter QSRR models from IS-RPLC logkw; settings: IS-RPLC retention (logkw)
Procedure: Multi-parameter QSRR models including logD, logkw, ne, A, and B were established using the multiple linear regression (MLR) method. In the process of linear fitting, ne, A, B, and their different combinations were introduced to optimize the models.
The logD values reported in the literature for these four compounds were calculated using Equation (S3) with corresponding pKa, logP, and pH values.
At each pH, the retention time (tR) of every analyte was determined for at least four different volume fractions (φ) of methanol. All the tR values of the solutes were obtained by averaging the results of at least three independent injections. The tR value was corrected using dual-point retention time correction (DP-RTC). For a detailed description of the process, refer to our previous work. For the different hydrophobicities of the studied compounds, benzene, toluene, and benzyl alcohol were used as anchor compounds in the DP-RTC method. The dead time t0 was determined using uracil. For each solute, the logarithm of k was plotted against φ, and logkw was obtained using the Equation (S1). The logD values of the model compounds were calculated using Equation (S3), and the logD–logkw models were established with Equation (S4). The statistical analysis for the regression model was accomplished using Origin 9.4.

[5] = ref database module of ACD/Labs software, cited from earlier work; for pKa: Table 4, verification compounds
[6] = ref database module of ACD/Labs software, cited from earlier work
[7] = pH 7.0, methanol/20 mmol/L ammonium phosphate buffer, Welch Xtimate C18, 30 °C, 100% aqueous extrapolation
[8] = pH 8.0, methanol/20 mmol/L ammonium phosphate buffer, Welch Xtimate C18, 30 °C, 100% aqueous extrapolation
[9] = pH 9.0, methanol/20 mmol/L ammonium phosphate buffer, Welch Xtimate C18, 30 °C, 100% aqueous extrapolation
[10] = pH 10.0, methanol/20 mmol/L ammonium phosphate buffer, Welch Xtimate C18, 30 °C, 100% aqueous extrapolation
[11] = Table 4, verification compounds

Compound	logkw-pH 7.0 [1, 7]	logkw-pH 8.0 [1, 8]	logkw-pH 9.0 [1, 9]	logkw-pH 10.0 [1, 10]	logDpH 7.0 [2]	logDpH 8.0 [2]	logDpH 9.0 [2]	logDpH 10.0 [2]	B [3]	chromatographic logD ([4]; pH 7)	chromatographic logD ([4]; pH 8)	chromatographic logD ([4]; pH 9)	chromatographic logD ([4]; pH 10)	pKa [5]	pKa1 [5]	logP [6, 11]	logP ([6]; n-octanol/water)	logkw-pH 7.0 ([1]; pH 7)	logkw-pH 8.0 ([1]; pH 8)	logkw-pH 9.0 ([1]; pH 9)	other results
Nc1ccc(Br)cc1 [4-Bromoaniline]	1.91	1.98	1.99	1.99	1.74	1.74	1.74	1.74	1.19	1.83	1.81	1.85	1.81	3.89	3.89	2.05	2.05				
c1ccc(-c2ccncc2)cc1 [4-Phenylpyridine]					2.58	2.59	2.59	2.59	1.38						5.45		2.59	2.66	2.81	2.84	logkw-pH 10.0 ([1]; pH 10): 2.80
c1ccc(CNCc2ccccc2)cc1 [Dibenzylamine]	2.42	2.99	3.28	4.54	1.26	2.20	2.83	3.01	1.30	1.52	2.36	2.81	3	8.76	8.76	3.03	3.03				
CCN(CC)c1ccccc1 [N, N-Diethylaniline]					3.17	3.29	3.31	3.31	0.95						6.57		3.31	3.20	3.44	3.47	logkw-pH 10.0 ([1]; pH 10): 3.54
